Data taken from patent publication US5599559A, “Calcium channel blocking polypeptide from agelenopsis aperta and therapeutic methods employing it” (priority 1995, dated 1997).
pIC50: −log10 of the molar value. Read-outs that look alike come from different tables or passages of the source.

System: calcium channels
Format: cell-based, rats
Details: read-out: IC50 for blocking calcium channels, pH 7.4

| Compound | pIC50 | pIC50 (cerebellar granule cells from 8 day old rats, fura2 fluorescence, 37° C.) |
| --- | --- | --- |
| COc1ccc(CCN(C)CCCC(C#N)(c2ccc(OC)c(OC)c2)C(C)C)cc1OC (centres unmarked) [Verapamil] | 5.32 |  |
| H2 N-Glu-Ala-Cys-Ala-Gly-Ala-Tyr-Lys-Ser-Cys-Asp-Lys-Val-Lys-Cys-Cys-His-Asp- Arg-Arg-Cys-Arg-Cys-Asn-lle-Ala-Met-Asp-Asn-Cys-Val-Cys-Lys-Leu-Phe-Tyr-Cys-Glu-Leu-Phe-Gly-Thr-Cys-Asp-Arg-Leu-Lys-Pro [peptide J2] |  | > 6.70 |
